Results taken from paper PMC11845477, “Exploring the principles behind antibiotics with limited resistance” (Nature Communications, 2025).

System: A. baumannii ATCC 17978 (SEN) and A. baumannii ATCC BAA-1605 (MDR)
Experiment: Adaptive laboratory evolution (ALE), relative MIC of evolved lines
Assay type: cell-based, Acinetobacter baumannii
From the text: Using the same set of bacterial strains, we initiated adaptive laboratory evolution with the aim to maximize the level of antibiotic resistance in the populations achieved during a longer, but fixed time period.
An established protocol for adaptive laboratory evolution[46],[73] was followed to propagate populations with the highest resistance levels. Starting with an antibiotic concentration that caused approximately 50% growth inhibition, ten parallel populations for each antibiotic-ancestor strain combination were grown for 72 hours at 37 °C with continuous shaking (300 RPM). MHB broth medium was used unless stated otherwise. After each incubation, 20 µl of each culture was transferred to four new wells containing fresh medium with increasing antibiotic concentrations (0.5×, 1×, 1.5×, and 2.5× the previous concentration) in a chessboard layout to monitor potential cross-contamination. Growth was monitored by measuring OD600 using a Biotek Synergy 2 microplate reader, and only populations grown in the highest drug concentration with an OD600 > 0.2 were transferred further.
A robotic liquid handling system was used to automatically prepare a 11 to 16-step serial dilution in 384-well microtiter plates (Greiner). A final concentration of 5 × 10^5 bacterial cells per mL were inoculated into each well containing 60 µL MHB medium. Bacterial cultures were incubated at 37 °C with continuous shaking (Infors shaker, 900 rpm with 3 mm throw) for 18 hours (2 replicates from each). Cell growth was monitored by measuring the optical density (OD600 values, using Biotek Synergy microplate reader). MIC was defined as the antibiotic concentration of complete growth inhibition (i.e., OD600 < 0.05). Relative MIC was calculated as follows:1 relativeMIC=MICevolved/MICancestor […]
Supplementary Figure 4. Resistance levels following adaptive laboratory evolution across bacterial strains. The level of resistance was measured as the fold change in relative MIC between evolved and ancestral strains after ~60 days of adaptive laboratory evolution. Data are grouped by bacterial strain (A. baumannii (AB), E. coli (EC), K. pneumoniae (KP), and P. aeruginosa (PA)) and categorized as either multidrug-resistant (MDR) or sensitive (SEN). Each data point represents a laboratory evolved line, and boxplots show the median, first and third quartiles, with whiskers indicating the 5th and 95th percentiles.
Statistical analysis was performed using two-sided Dunn’s post-hoc test with Benjamini-Hochberg correction for multiple comparisons (****/ ***/ **/ * indicates p < 0.0001/ 0.001/ 0.01/ 0.05). For detailed information on antibiotic and bacterial species, see Supplementary Table 1. For mode of action groups, refer to Table 1. Source data are provided as a Source Data file.

[1] = AB-SEN (Acinetobacter baumannii ATCC 17978), evolved line 2 adapted to the named antibiotic
[2] = AB-SEN (Acinetobacter baumannii ATCC 17978), evolved line 4 adapted to the named antibiotic
[3] = AB-SEN (Acinetobacter baumannii ATCC 17978), evolved line 5 adapted to the named antibiotic
[4] = AB-SEN (Acinetobacter baumannii ATCC 17978), evolved line 7 adapted to the named antibiotic
[5] = Acinetobacter baumannii ATCC 17978 (AB-SEN), evolved line 2
[6] = Acinetobacter baumannii ATCC 17978 (AB-SEN), evolved line 3
[7] = Acinetobacter baumannii ATCC 17978 (AB-SEN), evolved line 4
[8] = Acinetobacter baumannii ATCC 17978 (AB-SEN), evolved line 5
[9] = Acinetobacter baumannii ATCC 17978 (AB-SEN), evolved line 6
[10] = Acinetobacter baumannii ATCC 17978 (AB-SEN), evolved line 7
[11] = Acinetobacter baumannii ATCC 17978 (AB-SEN), evolved line 8
[12] = Acinetobacter baumannii ATCC 17978 (AB-SEN), evolved line 9
[13] = Acinetobacter baumannii ATCC 17978 (AB-SEN), evolved line 10
[14] = AB-SEN (Acinetobacter baumannii ATCC 17978), evolved line 6 adapted to the named antibiotic

Molecule: polymyxin-B
- MIC of evolved line (AB-MDR ATCC BAA 1605, evolved line 1): 512 µg/mL
- MIC of evolved line (AB-MDR ATCC BAA 1605, evolved line 2): 512 µg/mL
- MIC of evolved line (AB-MDR ATCC BAA 1605, evolved line 3): 256 µg/mL
- MIC of evolved line (AB-MDR ATCC BAA 1605, evolved line 4): 1020 µg/mL
- MIC of evolved line (AB-MDR ATCC BAA 1605, evolved line 5): 1020 µg/mL
- MIC of evolved line (AB-MDR ATCC BAA 1605, evolved line 6): 1020 µg/mL
- MIC of evolved line (AB-MDR ATCC BAA 1605, evolved line 7): 1020 µg/mL
- MIC of evolved line (AB-MDR ATCC BAA 1605, evolved line 8): 1020 µg/mL
- MIC of evolved line (AB-MDR ATCC BAA 1605, evolved line 9): 1020 µg/mL
- MIC of evolved line (AB-MDR ATCC BAA 1605, evolved line 10): 1020 µg/mL
- MIC of evolved line (AB-SEN (A. baumannii ATCC 17978), evolved line 1 of the given antibiotic): 512 µg/mL
- MIC of evolved line (AB-SEN (A. baumannii ATCC 17978), evolved line 2 of the given antibiotic): 512 µg/mL
- MIC of evolved line (AB-SEN (A. baumannii ATCC 17978), evolved line 3 of the given antibiotic): 256 µg/mL
- MIC of evolved line (AB-SEN (A. baumannii ATCC 17978), evolved line 4 of the given antibiotic): 512 µg/mL
- MIC of evolved line (AB-SEN (A. baumannii ATCC 17978), evolved line 5 of the given antibiotic): 512 µg/mL
- MIC of evolved line (AB-SEN (A. baumannii ATCC 17978), evolved line 6 of the given antibiotic): 512 µg/mL
- MIC of evolved line (AB-SEN (A. baumannii ATCC 17978), evolved line 8 of the given antibiotic): 256 µg/mL
- MIC of evolved line (AB-SEN (A. baumannii ATCC 17978), evolved line 9 of the given antibiotic): 256 µg/mL

Molecule: CNC(C)C1CCC(N)C(OC2C(N)CC(N)C(OC3OCC(C)(O)C(NC)C3O)C2O)O1 (stereo not shown) [Gentamicin]
- Relative MIC (log10) [1]: 2.709
- Relative MIC (log10) [2]: 2.709
- Relative MIC (log10) [3]: 2.709
- Relative MIC (log10) [4]: 2.709
- Relative MIC (log10) (AB-SEN (Acinetobacter baumannii ATCC 17978), evolved line 10 adapted to the named antibiotic): 2.709
- Relative MIC (AB-SEN, Acinetobacter baumannii ATCC 17978, evolved line 2 versus ancestor): 512
- Relative MIC (AB-SEN, Acinetobacter baumannii ATCC 17978, evolved line 3 versus ancestor): 256
- Relative MIC (AB-SEN, Acinetobacter baumannii ATCC 17978, evolved line 4 versus ancestor): 512
- Relative MIC (AB-SEN, Acinetobacter baumannii ATCC 17978, evolved line 5 versus ancestor): 512
- Relative MIC (AB-SEN, Acinetobacter baumannii ATCC 17978, evolved line 6 versus ancestor): 256
- Relative MIC (AB-SEN, Acinetobacter baumannii ATCC 17978, evolved line 7 versus ancestor): 512
- Relative MIC (AB-SEN, Acinetobacter baumannii ATCC 17978, evolved line 8 versus ancestor): 128
- Relative MIC (AB-SEN, Acinetobacter baumannii ATCC 17978, evolved line 9 versus ancestor): 128
- Relative MIC (AB-SEN, Acinetobacter baumannii ATCC 17978, evolved line 10 versus ancestor): 512
- Relative MIC [5]: 512
- Relative MIC [6]: 256
- Relative MIC [7]: 512
- Relative MIC [8]: 512
- Relative MIC [9]: 256
- Relative MIC [10]: 512
- Relative MIC [11]: 128
- Relative MIC [12]: 128
- Relative MIC [13]: 512

Molecule: CN(C)c1cc(CNCC(C)(C)C)c(O)c2c1C[C@H]1C[C@H]3[C@H](N(C)C)C(O)=C(C(N)=O)C(=O)[C@@]3(O)C(O)=C1C2=O [Omadacycline]
- Relative MIC (AB-SEN (Acinetobacter baumannii ATCC 17978), evolved line 1): 32
- Relative MIC (log10) (AB-SEN (Acinetobacter baumannii ATCC 17978), evolved line 1 adapted to the named antibiotic): 1.505
- Relative MIC (AB-SEN (Acinetobacter baumannii ATCC 17978), evolved line 2): 64
- Relative MIC (AB-SEN (Acinetobacter baumannii ATCC 17978), evolved line 3): 64
- Relative MIC (log10) (AB-SEN (Acinetobacter baumannii ATCC 17978), evolved line 3 adapted to the named antibiotic): 1.806
- Relative MIC (AB-SEN (Acinetobacter baumannii ATCC 17978), evolved line 4): 32
- Relative MIC (AB-SEN (Acinetobacter baumannii ATCC 17978), evolved line 5): 128
- Relative MIC (AB-SEN (Acinetobacter baumannii ATCC 17978), evolved line 6): 128
- Relative MIC (log10) [14]: 2.107
- Relative MIC (log10) [4]: 1.806
- Relative MIC (AB-SEN (Acinetobacter baumannii ATCC 17978), evolved line 8): 64
- Relative MIC (log10) (AB-SEN (Acinetobacter baumannii ATCC 17978), evolved line 8 adapted to the named antibiotic): 1.806
- Relative MIC (AB-SEN (Acinetobacter baumannii ATCC 17978), evolved line 9): 32
- Relative MIC (AB-SEN (Acinetobacter baumannii ATCC 17978), evolved line 10): 32
- Relative MIC (AB-SEN ATCC 17978, evolved line 1, evolved line vs ancestor): 32
- Relative MIC (AB-SEN ATCC 17978, evolved line 2, evolved line vs ancestor): 64
- Relative MIC (AB-SEN ATCC 17978, evolved line 3, evolved line vs ancestor): 64
- Relative MIC (AB-SEN ATCC 17978, evolved line 4, evolved line vs ancestor): 32
- Relative MIC (AB-SEN ATCC 17978, evolved line 5, evolved line vs ancestor): 128
- Relative MIC (AB-SEN ATCC 17978, evolved line 6, evolved line vs ancestor): 128
- Relative MIC (AB-SEN ATCC 17978, evolved line 7, evolved line vs ancestor): 64
- Relative MIC (AB-SEN ATCC 17978, evolved line 8, evolved line vs ancestor): 64
- Relative MIC (AB-SEN ATCC 17978, evolved line 9, evolved line vs ancestor): 32
- Relative MIC (AB-SEN ATCC 17978, evolved line 10, evolved line vs ancestor): 32
- Relative MIC (AB-SEN, Acinetobacter baumannii ATCC 17978, evolved line 7): 64

Molecule: Nc1nc(-n2cc(C(=O)O)c(=O)c3cc(F)c(N4CC(O)C4)c(Cl)c32)c(F)cc1F [Delafloxacin]
- Relative MIC (AB-SEN (ATCC 17978), evolved line 1, MIC of evolved line / MIC of ancestor): 256
- Relative MIC (AB-SEN (ATCC 17978), evolved line 2, MIC of evolved line / MIC of ancestor): 128
- Relative MIC (AB-SEN (ATCC 17978), evolved line 3, MIC of evolved line / MIC of ancestor): 256
- Relative MIC (AB-SEN (ATCC 17978), evolved line 4, MIC of evolved line / MIC of ancestor): 256
- Relative MIC (AB-SEN (ATCC 17978), evolved line 5, MIC of evolved line / MIC of ancestor): 512
- Relative MIC (AB-SEN (ATCC 17978), evolved line 6, MIC of evolved line / MIC of ancestor): 256
- Relative MIC (AB-SEN (ATCC 17978), evolved line 7, MIC of evolved line / MIC of ancestor): 128
- Relative MIC (AB-SEN (ATCC 17978), evolved line 8, MIC of evolved line / MIC of ancestor): 64
- Relative MIC (AB-SEN (ATCC 17978), evolved line 9, MIC of evolved line / MIC of ancestor): 128
- Relative MIC (AB-SEN (ATCC 17978), evolved line 10, MIC of evolved line / MIC of ancestor): 128
- Relative MIC (log10) [1]: 2.107
- Relative MIC (log10) [2]: 2.408
- Relative MIC (log10) [3]: 2.709
- Relative MIC (log10) [14]: 2.408
- Relative MIC (log10) (AB-SEN (Acinetobacter baumannii ATCC 17978), evolved line 9 adapted to the named antibiotic): 2.107
- Relative MIC (Acinetobacter baumannii ATCC 17978 (AB-SEN), evolved line 1): 256
- Relative MIC [5]: 128
- Relative MIC [6]: 256
- Relative MIC [7]: 256
- Relative MIC [8]: 512
- Relative MIC [9]: 256
- Relative MIC [10]: 128
- Relative MIC [11]: 64
- Relative MIC [12]: 128
- Relative MIC [13]: 128
